From article PMC6986443, “T‐495, a novel low cooperative M1 receptor positive allosteric modulator, improves memory deficits associated with cholinergic dysfunction and is characterized by low gastrointestinal side effect risk” (Pharmacology Research & Perspectives, 2020)

How the values were obtained:
Experiment in all cases: Selectivity panel
[1] = system: ATPase, Ca2+, Skeletal Muscle; assay type: biochemical
Excerpt: (§1) The selectivity of T‐495 at 10 μmol/L against a panel of 106 targets, including receptors, enzymes, ion channels, and transporters, was characterized (Eurofins Panlabs Taiwan Ltd., Taipei, Taiwan).

ATPase, Na+/K+, Heart = assay type: biochemical
Excerpt: as §1

Carbonic anhydrase II = target: T1, Carbonic anhydrase II (Homo sapiens, UniProt P00918); assay type: biochemical
T1 construct: purchased Eurofins Panlabs Taiwan Ltd
Excerpt: as §1

[2] = system: Catechol-O-Methyl Transferase (COMT); assay type: biochemical
Excerpt: as §1

[3] = target: T2, Choline esterase, acetyl, ACES (Homo sapiens, UniProt P22303); assay type: biochemical
T2 construct: purchased Eurofins Panlabs Taiwan Ltd
Excerpt: as §1

Cyclooxygenase-2 (COX-2) = target: T3, Cyclooxygenase-2 (COX-2) (Homo sapiens, UniProt P35354); assay type: biochemical
T3 construct: purchased Eurofins Panlabs Taiwan Ltd
Excerpt: as §1

Lipoxygenase (5-LO) = target: T4, Lipoxygenase (5-LO) (Homo sapiens, UniProt P09917); assay type: biochemical
T4 construct: purchased Eurofins Panlabs Taiwan Ltd
Excerpt: as §1

[4] = target: T5, Matrix metalloproteinase-1 (MMP-1) (Homo sapiens, UniProt P03956); assay type: biochemical
T5 construct: purchased Eurofins Panlabs Taiwan Ltd
T5 sequence (P03956 100-469): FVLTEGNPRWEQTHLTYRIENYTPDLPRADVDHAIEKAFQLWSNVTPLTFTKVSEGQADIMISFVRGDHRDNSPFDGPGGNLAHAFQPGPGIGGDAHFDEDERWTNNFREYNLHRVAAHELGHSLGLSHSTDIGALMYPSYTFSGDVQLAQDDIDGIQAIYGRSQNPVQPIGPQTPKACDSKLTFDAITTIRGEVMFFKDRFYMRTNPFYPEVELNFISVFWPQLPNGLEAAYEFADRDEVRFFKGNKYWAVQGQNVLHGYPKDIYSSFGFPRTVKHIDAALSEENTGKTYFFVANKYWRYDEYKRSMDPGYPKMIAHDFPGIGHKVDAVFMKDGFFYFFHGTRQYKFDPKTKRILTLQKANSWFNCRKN
Excerpt: as §1

[5] = target: T6, Matrix metalloproteinase-7 (MMP-7) (Homo sapiens, UniProt P09237); assay type: biochemical
T6 construct: purchased Eurofins Panlabs Taiwan Ltd
T6 sequence (P09237 95-267): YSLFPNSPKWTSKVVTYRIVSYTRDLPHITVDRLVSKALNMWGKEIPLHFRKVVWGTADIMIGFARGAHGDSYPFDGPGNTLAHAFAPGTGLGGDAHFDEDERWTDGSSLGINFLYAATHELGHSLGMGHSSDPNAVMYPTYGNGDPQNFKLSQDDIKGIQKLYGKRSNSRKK
Excerpt: as §1

[6] = target: T7, Monoamine oxidase A (MAO-A) (Homo sapiens, UniProt P21397); assay type: biochemical
T7 construct: purchased Eurofins Panlabs Taiwan Ltd
Excerpt: as §1

[7] = target: T8, Monoamine oxidase B (MAO-B) (Homo sapiens, UniProt P27338); assay type: biochemical
T8 construct: purchased Eurofins Panlabs Taiwan Ltd
Excerpt: as §1

[8] = target: T9, Nitric oxide synthase, neuronal (nNOS) (Rattus norvegicus, UniProt P29476); assay type: biochemical
T9 construct: purchased Eurofins Panlabs Taiwan Ltd
Excerpt: as §1

Peptidase, factor Xa = target: T10, Peptidase, factor Xa (Homo sapiens, UniProt P00742); assay type: biochemical
T10 construct: purchased Eurofins Panlabs Taiwan Ltd
Excerpt: as §1

[9] = target: T11, Phosphodiesterase PDE10A2 (Homo sapiens, UniProt Q9Y233); assay type: biochemical
T11 construct: purchased Eurofins Panlabs Taiwan Ltd
Excerpt: as §1

Phosphodiesterase PDE3 = assay type: biochemical
Excerpt: as §1

Phosphodiesterase PDE4D2 = target: T12, Phosphodiesterase PDE4D2 (Homo sapiens, UniProt Q08499); assay type: biochemical
T12 construct: purchased Eurofins Panlabs Taiwan Ltd
Excerpt: as §1

Phosphodiesterase PDE4 = assay type: biochemical
Excerpt: as §1

Phosphodiesterase PDE5 = target: T13, Phosphodiesterase PDE5 (Homo sapiens, UniProt O76074); assay type: biochemical
T13 construct: purchased Eurofins Panlabs Taiwan Ltd
Excerpt: as §1

Phosphodiesterase PDE6 = target: T14, Phosphodiesterase PDE6 (Bos taurus, UniProt P11541+P23439); assay type: biochemical
T14 construct: purchased Eurofins Panlabs Taiwan Ltd
Excerpt: as §1

[10] = system: Protein kinase C (PKC), non-selective; assay type: biochemical
Excerpt: as §1

[11] = target: T15, Protein tyrosine kinase, EGF receptor (Homo sapiens, UniProt P00533); assay type: biochemical
T15 construct: purchased Eurofins Panlabs Taiwan Ltd
Excerpt: as §1

Steroid 5α-reductase = assay type: biochemical
Excerpt: as §1

Xanthine oxidase = target: T16, Xanthine oxidase (Bos taurus, UniProt P80457); assay type: biochemical
T16 construct: purchased Eurofins Panlabs Taiwan Ltd
Excerpt: as §1

Adenosine A2B = target: T17, Adenosine A2B (Homo sapiens, UniProt P29275); assay type: binding
T17 construct: purchased Eurofins Panlabs Taiwan Ltd
Excerpt: as §1

Adrenergic β3 = target: T18, Adrenergic β3 (Homo sapiens, UniProt P13945); assay type: binding
T18 construct: purchased Eurofins Panlabs Taiwan Ltd
Excerpt: as §1

Angiotensin AT1 = target: T19, Angiotensin AT1 (Homo sapiens, UniProt P30556); assay type: binding
T19 construct: purchased Eurofins Panlabs Taiwan Ltd
T19 sequence (P30556 whole entry): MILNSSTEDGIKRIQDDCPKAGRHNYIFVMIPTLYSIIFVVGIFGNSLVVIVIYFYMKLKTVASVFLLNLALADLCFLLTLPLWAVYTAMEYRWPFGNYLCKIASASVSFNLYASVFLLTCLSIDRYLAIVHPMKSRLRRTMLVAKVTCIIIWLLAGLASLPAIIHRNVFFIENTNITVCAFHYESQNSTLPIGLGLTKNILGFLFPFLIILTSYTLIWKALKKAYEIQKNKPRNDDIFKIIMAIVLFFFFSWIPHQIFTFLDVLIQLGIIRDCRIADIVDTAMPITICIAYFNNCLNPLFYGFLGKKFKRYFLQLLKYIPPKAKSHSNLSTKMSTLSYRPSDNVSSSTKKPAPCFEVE
Excerpt: as §1

Bradykinin B2 = target: T20, Bradykinin B2 (Homo sapiens, UniProt P30411); assay type: binding
T20 construct: purchased Eurofins Panlabs Taiwan Ltd
Excerpt: as §1

Calcium channel N-type = target: T21, Calcium channel N-type (Rattus norvegicus, UniProt Q02294); assay type: binding
T21 construct: purchased Eurofins Panlabs Taiwan Ltd
T21 sequence (Q02294 whole entry): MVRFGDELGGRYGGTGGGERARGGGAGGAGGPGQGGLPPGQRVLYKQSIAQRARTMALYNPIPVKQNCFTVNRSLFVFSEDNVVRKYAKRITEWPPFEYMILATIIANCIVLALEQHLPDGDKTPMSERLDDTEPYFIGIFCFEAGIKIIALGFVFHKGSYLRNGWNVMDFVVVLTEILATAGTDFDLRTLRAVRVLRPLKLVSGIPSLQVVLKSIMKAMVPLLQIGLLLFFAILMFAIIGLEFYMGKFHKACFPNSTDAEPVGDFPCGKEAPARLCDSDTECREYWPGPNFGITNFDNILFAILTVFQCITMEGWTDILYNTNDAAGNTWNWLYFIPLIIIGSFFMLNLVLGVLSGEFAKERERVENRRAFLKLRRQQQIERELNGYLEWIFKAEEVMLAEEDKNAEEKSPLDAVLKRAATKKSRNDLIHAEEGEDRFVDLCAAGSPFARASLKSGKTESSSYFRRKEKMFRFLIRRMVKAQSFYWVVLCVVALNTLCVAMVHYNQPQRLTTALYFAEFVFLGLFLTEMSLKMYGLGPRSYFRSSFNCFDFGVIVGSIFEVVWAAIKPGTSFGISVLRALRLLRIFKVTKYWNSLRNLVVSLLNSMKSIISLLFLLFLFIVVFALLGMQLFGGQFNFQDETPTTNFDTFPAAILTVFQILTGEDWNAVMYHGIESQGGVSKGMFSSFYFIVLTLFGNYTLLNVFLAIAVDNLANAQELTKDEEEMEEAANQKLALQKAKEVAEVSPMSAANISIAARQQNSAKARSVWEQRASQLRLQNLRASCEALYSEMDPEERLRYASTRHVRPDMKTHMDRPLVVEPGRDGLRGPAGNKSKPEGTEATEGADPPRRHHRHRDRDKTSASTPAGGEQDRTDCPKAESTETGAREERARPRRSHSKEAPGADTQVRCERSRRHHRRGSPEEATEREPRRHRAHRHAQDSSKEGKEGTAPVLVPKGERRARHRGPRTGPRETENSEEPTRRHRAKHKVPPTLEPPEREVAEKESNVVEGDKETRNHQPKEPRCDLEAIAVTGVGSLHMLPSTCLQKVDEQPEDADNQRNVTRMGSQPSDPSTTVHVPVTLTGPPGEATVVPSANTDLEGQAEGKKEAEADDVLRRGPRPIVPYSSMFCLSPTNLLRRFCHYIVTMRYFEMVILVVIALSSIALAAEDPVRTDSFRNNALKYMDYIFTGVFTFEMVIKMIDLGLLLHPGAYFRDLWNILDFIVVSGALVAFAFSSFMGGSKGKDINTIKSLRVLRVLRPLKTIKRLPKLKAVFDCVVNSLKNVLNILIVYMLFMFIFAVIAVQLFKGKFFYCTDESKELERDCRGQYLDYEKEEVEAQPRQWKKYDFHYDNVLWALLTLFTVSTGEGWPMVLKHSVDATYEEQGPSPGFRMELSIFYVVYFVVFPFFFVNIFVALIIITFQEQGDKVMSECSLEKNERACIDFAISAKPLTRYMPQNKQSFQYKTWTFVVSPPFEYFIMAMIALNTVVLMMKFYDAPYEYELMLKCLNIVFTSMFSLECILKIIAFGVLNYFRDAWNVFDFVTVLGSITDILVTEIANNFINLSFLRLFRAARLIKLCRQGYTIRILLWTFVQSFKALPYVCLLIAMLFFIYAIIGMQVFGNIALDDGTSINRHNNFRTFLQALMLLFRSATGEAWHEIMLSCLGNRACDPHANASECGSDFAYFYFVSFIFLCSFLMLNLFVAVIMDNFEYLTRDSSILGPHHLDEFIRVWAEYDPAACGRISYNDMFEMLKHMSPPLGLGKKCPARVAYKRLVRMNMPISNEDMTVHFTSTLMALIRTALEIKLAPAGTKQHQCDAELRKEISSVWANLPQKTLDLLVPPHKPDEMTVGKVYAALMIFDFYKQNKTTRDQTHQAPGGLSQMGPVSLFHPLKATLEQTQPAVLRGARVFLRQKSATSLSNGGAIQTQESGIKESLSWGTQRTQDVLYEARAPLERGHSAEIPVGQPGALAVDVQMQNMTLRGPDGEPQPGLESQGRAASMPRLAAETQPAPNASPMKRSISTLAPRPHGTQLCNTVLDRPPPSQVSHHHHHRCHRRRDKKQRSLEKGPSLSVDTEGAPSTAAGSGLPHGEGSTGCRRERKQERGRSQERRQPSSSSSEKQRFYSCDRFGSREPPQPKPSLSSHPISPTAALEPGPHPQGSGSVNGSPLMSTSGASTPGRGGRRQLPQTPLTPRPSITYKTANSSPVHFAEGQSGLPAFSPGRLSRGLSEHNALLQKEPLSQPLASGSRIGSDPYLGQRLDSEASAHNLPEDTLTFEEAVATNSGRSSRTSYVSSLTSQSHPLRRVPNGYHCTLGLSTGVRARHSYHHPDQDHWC
Excerpt: as §1

Cannabinoid CB2 = target: T22, Cannabinoid CB2 (Homo sapiens, UniProt P34972); assay type: binding
T22 construct: purchased Eurofins Panlabs Taiwan Ltd
Excerpt: as §1

[12] = target: T23, Cholecystokinin CCK1 (CCKA) (Homo sapiens, UniProt P32238); assay type: binding
T23 construct: purchased Eurofins Panlabs Taiwan Ltd
T23 sequence (P32238 whole entry): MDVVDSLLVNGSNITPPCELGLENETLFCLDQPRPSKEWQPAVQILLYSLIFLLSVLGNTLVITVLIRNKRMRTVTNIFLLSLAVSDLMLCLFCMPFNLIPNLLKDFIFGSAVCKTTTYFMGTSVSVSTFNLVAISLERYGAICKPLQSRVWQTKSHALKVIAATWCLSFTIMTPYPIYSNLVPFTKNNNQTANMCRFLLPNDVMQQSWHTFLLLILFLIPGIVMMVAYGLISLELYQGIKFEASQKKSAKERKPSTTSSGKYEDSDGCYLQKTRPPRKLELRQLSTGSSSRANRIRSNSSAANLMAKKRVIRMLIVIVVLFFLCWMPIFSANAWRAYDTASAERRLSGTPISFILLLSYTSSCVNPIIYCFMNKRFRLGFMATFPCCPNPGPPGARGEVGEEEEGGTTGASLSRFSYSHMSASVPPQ
Excerpt: as §1

GABAA, chloride channel = assay type: binding
Excerpt: as §1

Glutamate, AMPA = assay type: binding
Excerpt: as §1

Glutamate, NMDA, glycine = assay type: binding
Excerpt: as §1

[13] = target: T24, Growth hormone secretagogue (ghrelin) (Homo sapiens, UniProt Q92847); assay type: binding
T24 construct: purchased Eurofins Panlabs Taiwan Ltd
T24 sequence (Q92847 whole entry): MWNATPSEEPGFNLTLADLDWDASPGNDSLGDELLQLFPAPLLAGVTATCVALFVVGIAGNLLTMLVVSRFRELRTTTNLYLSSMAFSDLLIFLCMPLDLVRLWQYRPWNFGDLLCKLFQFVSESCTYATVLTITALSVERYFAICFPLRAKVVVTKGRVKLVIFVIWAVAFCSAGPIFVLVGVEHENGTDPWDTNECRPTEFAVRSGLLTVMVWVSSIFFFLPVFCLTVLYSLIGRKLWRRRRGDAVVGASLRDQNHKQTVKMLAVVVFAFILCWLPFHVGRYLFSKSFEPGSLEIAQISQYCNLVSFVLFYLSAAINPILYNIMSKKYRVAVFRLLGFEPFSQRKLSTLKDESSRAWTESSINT
Excerpt: as §1

Opiate μ (OP3, MOP) = target: T25, Opiate μ (OP3, MOP) (Homo sapiens, UniProt P35372); assay type: binding
T25 construct: purchased Eurofins Panlabs Taiwan Ltd
T25 sequence (P35372 whole entry): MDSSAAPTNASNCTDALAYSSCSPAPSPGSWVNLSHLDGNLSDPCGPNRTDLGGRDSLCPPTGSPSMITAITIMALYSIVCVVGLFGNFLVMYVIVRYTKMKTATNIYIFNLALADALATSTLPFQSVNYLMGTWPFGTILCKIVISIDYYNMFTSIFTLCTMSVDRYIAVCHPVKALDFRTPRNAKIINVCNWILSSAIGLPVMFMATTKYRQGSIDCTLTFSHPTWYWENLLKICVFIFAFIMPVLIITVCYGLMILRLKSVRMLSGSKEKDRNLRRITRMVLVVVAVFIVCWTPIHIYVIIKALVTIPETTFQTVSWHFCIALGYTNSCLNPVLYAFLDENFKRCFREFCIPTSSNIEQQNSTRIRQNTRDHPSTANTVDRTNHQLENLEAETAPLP
Excerpt: as §1

Progesterone PR-B = target: T26, Progesterone PR-B (Homo sapiens, UniProt P06401); assay type: binding
T26 construct: purchased Eurofins Panlabs Taiwan Ltd
Excerpt: as §1

Serotonin 5-HT2B = target: T27, Serotonin 5-HT2B (Homo sapiens, UniProt P41595); assay type: binding
T27 construct: purchased Eurofins Panlabs Taiwan Ltd
Excerpt: as §1

Serotonin 5-HT4 = assay type: binding
Excerpt: as §1

Sodium channel, Site 2 = assay type: binding
Excerpt: as §1

Tachykinin NK3 = target: T28, Tachykinin NK3 (Homo sapiens, UniProt P29371); assay type: binding
T28 construct: purchased Eurofins Panlabs Taiwan Ltd
Excerpt: as §1

[14] = target: T29, Transporter, dopamine (DAT) (Homo sapiens, UniProt Q01959); assay type: binding
T29 construct: purchased Eurofins Panlabs Taiwan Ltd
T29 sequence (Q01959 whole entry): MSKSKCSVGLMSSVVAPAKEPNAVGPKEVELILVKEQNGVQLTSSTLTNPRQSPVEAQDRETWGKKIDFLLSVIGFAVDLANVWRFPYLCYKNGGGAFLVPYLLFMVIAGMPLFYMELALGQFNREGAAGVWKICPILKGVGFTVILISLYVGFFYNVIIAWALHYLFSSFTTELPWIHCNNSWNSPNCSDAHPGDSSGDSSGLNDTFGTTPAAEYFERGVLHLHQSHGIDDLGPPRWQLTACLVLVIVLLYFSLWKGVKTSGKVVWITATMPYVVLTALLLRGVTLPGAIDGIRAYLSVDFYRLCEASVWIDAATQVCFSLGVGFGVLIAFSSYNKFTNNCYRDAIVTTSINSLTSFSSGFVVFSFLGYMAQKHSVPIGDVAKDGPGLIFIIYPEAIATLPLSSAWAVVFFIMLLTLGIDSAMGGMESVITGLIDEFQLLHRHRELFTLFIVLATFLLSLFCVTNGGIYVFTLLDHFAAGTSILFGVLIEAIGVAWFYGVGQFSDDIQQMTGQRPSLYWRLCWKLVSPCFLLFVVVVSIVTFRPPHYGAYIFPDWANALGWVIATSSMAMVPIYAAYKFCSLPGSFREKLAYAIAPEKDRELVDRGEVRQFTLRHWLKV
Excerpt: as §1

[15] = target: T30, Transporter, norepinephrine (NET) (Homo sapiens, UniProt P23975); assay type: binding
T30 construct: purchased Eurofins Panlabs Taiwan Ltd
Excerpt: as §1

Vasopressin V2 = target: T31, Vasopressin V2 (Homo sapiens, UniProt P30518); assay type: binding
T31 construct: purchased Eurofins Panlabs Taiwan Ltd
Excerpt: as §1

Cc1c(Cc2ccc(Cl)nc2)cc2c(c1Cl)OCN([C@H]1CCC[C@@H]1O)C2=O [T‐495, 8‐chloro‐6‐((6‐chloropyridin‐3‐yl)methyl)‐3‐((1S,2S)‐2‐hydroxycyclopentyl)‐7‐methyl‐2,3‐dihydro‐4H‐1,3‐benzoxazin‐4‐one]
% inhibition at 10 μM [1]: 0%
% inhibition at 10 μM (ATPase, Na+/K+, Heart): 4%
inhibition at 10 µM (Carbonic anhydrase II): -9%
% inhibition at 10 μM [2]: 2%
inhibition at 10 µM [3]: -2%
inhibition at 10 µM (Cyclooxygenase-2 (COX-2)): 31%
inhibition at 10 µM (Lipoxygenase (5-LO)): 15%
inhibition at 10 µM [4]: 5%
inhibition at 10 µM [5]: 3%
inhibition at 10 µM [6]: 36%
inhibition at 10 µM [7]: 6%
inhibition at 10 µM [8]: 5%
inhibition at 10 µM (Peptidase, factor Xa): -2%
inhibition at 10 µM [9]: 5%
% inhibition at 10 μM (Phosphodiesterase PDE3): 2%
inhibition at 10 µM (Phosphodiesterase PDE4D2): 2%
% inhibition at 10 μM (Phosphodiesterase PDE4): 22%
inhibition at 10 µM (Phosphodiesterase PDE5): 48%
inhibition at 10 µM (Phosphodiesterase PDE6): 6%
% inhibition at 10 μM [10]: 0%
inhibition at 10 µM [11]: 9%
% inhibition at 10 μM (Steroid 5α-reductase): 2%
inhibition at 10 µM (Xanthine oxidase): 7%
inhibition at 10 µM (Adenosine A2B): 7%
inhibition at 10 µM (Adrenergic β3): 7%
inhibition at 10 µM (Angiotensin AT1): 23%
inhibition at 10 µM (Bradykinin B2): -4%
inhibition at 10 µM (Calcium channel N-type): 0%
inhibition at 10 µM (Cannabinoid CB2): 12%
inhibition at 10 µM [12]: 2%
% inhibition at 10 μM (GABAA, chloride channel): 45%
% inhibition at 10 μM (Glutamate, AMPA): 20%
% inhibition at 10 μM (Glutamate, NMDA, glycine): 15%
inhibition at 10 µM [13]: 8%
inhibition at 10 µM (Opiate μ (OP3, MOP)): 12%
inhibition at 10 µM (Progesterone PR-B): 21%
inhibition at 10 µM (Serotonin 5-HT2B): 28%
% inhibition at 10 μM (Serotonin 5-HT4): 22%
% inhibition at 10 μM (Sodium channel, Site 2): 1%
inhibition at 10 µM (Tachykinin NK3): 5%
inhibition at 10 µM [14]: 58%
inhibition at 10 µM [15]: 17%
inhibition at 10 µM (Vasopressin V2): -7%
